Test results reported in patent publication US7767409B2, “Method for detection of substance bound to nuclear receptor” (Fujikura Kasei Co., Ltd., priority 2005, dated 2010).

How the values were obtained:
Type in all cases: biochemical
[1] = biological target: T1, human liver X receptor α-GST fusion protein (LXR-α) (Homo sapiens, UniProt Q13133); test: Agonist assay with nuclear receptor-GST fusion protein, LXR-α; details: FIG. 9
T1 construct: made in house
T1 sequence (Q13133 209-447 limits assumed): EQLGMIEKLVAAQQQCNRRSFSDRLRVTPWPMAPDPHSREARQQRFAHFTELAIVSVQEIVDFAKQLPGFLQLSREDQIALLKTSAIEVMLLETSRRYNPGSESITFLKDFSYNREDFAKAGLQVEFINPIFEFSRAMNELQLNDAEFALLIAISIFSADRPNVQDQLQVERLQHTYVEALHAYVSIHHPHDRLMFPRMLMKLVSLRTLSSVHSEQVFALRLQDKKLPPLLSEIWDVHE

[2] = biological target: T2, human liver X receptor β-GST fusion protein (LXR-β) (Homo sapiens, UniProt P55055); test: Agonist assay with nuclear receptor-GST fusion protein, LXR-β; details: FIG. 9
T2 construct: made in house
T2 sequence (P55055 222-460 limits assumed): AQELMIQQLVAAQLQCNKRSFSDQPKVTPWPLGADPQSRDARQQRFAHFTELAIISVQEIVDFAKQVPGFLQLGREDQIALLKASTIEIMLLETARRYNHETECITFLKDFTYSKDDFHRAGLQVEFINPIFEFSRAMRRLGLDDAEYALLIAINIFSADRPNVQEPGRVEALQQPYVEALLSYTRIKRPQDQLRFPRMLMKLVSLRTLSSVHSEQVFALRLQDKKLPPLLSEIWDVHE

[3] = biological target: T3, human estrogen receptor β-GST fusion protein (ER-β) (Homo sapiens, UniProt Q92731); test: Assay of ligand using coactivator SRC1-bound plate, ER-β; details: HRP-labeled anti-GST antibody, 450 nm, FIG. 6
T3 construct: made in house; host or cells: Escherichia coli BL21
T3 sequence (Q92731 264-498 limits assumed): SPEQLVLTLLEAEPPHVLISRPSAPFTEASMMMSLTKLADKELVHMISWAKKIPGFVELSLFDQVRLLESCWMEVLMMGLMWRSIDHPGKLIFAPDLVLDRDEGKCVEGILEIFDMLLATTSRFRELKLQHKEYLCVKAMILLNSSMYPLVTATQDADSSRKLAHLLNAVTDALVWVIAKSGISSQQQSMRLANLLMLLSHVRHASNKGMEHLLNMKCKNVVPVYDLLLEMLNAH

[4] = biological target: T4, human estrogen receptor α-GST fusion protein (ER-α) (Homo sapiens, UniProt P03372); test: Assay of ligand using coactivator SRC1-bound plate, ER-α (present detection method); details: HRP-labeled anti-GST antibody, 450 nm, FIG. 6
T4 construct: made in house; host or cells: Escherichia coli BL21
T4 sequence (P03372 311-547 limits assumed): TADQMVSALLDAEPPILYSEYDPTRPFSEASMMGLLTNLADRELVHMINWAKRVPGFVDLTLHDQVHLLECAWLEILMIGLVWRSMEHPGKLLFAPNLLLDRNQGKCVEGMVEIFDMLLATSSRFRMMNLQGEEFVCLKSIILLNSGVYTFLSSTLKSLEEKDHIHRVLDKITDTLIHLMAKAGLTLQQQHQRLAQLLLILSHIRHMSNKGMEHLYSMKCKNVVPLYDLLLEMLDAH
Experimental: In a manner similar to that of the aforementioned existing method, a purified ER-α product (10 mL) was prepared from an ER-α cell culture (1 L). By use of this product, the amount of an assay reagent prepared was examined as described hereinbelow. Avidin was immobilized on a plate in advance, and a biotinylated coactivator SRC1 (0.01 mg/mL, dissolved in DMSO) was prepared into a solution (final concentration: […]) by use of a washing buffer. The thus-prepared solution was dispensed into the plate (100 μL/well), followed by impregnation for one hour, to thereby prepare an SRC1-bound plate. […] After reaction with shaking for one hour, the plate was washed with a washing buffer, and an HRP-labeled anti-GST antibody solution prepared by diluting the antibody with a washing buffer by a factor of 1/40,000 was dispensed into the plate (100 μL/well), followed by reaction with shaking for one hour. After reaction, the plate was washed with a washing buffer; a color-developing reagent was added to the plate (100 μL/well); and the plate was allowed to stand still for 10 minutes for color development reaction. Color development reaction was stopped by use of 1 N sulfuric acid, followed by measurement at a wavelength of 450 nm by means of a plate reader.
An HRP-labeled anti-GST antibody was employed for assay.

In the case of O=S(=O)(c1ccccc1)N(CC(F)(F)F)c1ccc(C(O)(C(F)(F)F)C(F)(F)F)cc1 [TO-901317], the “OD, agonist dose dependence” value [1] is reported as “OD was increased in a manner dependent on the dose of the corresponding agonist” and the “OD, agonist dose dependence” value [2] is reported as “OD was increased in a manner dependent on the dose of the corresponding agonist”.
CC(C)(c1ccc(O)cc1)c1ccc(O)cc1 [bisphenol A] was tested, and the “OD (binding of receptor to immobilized coactivator), agonist mode” value (“OD … agonist mode” below) [3] was “increase in OD was observed” and the “OD … agonist mode” value [4] was “increase in OD was observed”.
In the case of nonylphenol, the “OD … agonist mode” value [3] is reported as “increase in OD was observed” and the “OD … agonist mode” value [4] is reported as “increase in OD was observed”.
For CC/C(=C(/CC)c1ccc(O)cc1)c1ccc(O)cc1 [diethylstilbestrol], the “OD … agonist mode” value [3] was “increase in OD was observed”.
